Results published in PMC5360270 (Journal of medicinal chemistry, 2016).

Assays:
Type in all cases: cell-based
HIV-1B = assay: Antiviral p24 assay in MT-4 cells, multi-drug resistant variant HIV-1B; details: 50 TCID50 HIV-1B (multi-drug resistant)
HIV-1DRV^RP20 = assay: Antiviral p24 assay in MT-4 cells, multi-drug resistant variant HIV-1DRVRP20; details: 50 TCID50 HIV-1DRV^RP20 (multi-drug resistant)
HIV-1C = assay: Antiviral p24 assay in MT-4 cells, multi-drug resistant variant HIV-1C; details: 50 TCID50 HIV-1C (multi-drug resistant)
HIV-1NL4-3 = assay: Antiviral p24 assay in MT-4 cells, wild-type HIV-1NL4-3; details: 50 TCID50 wild-type HIV-1NL4-3, p24 assay
HIV-1LAI = assay: Antiviral assay in MT-2 cells exposed to HIV-1LAI, MTT assay; details: Human immunodeficiency virus 1, MT2

| SMILES | Mean IC50 ± SD (HIV-1B) | Mean IC50 ± SD (HIV-1DRV^RP20) | Mean IC50 ± SD (HIV-1C) | Mean IC50 ± SD (HIV-1NL4-3) | IC50 (HIV-1LAI) |
| --- | --- | --- | --- | --- | --- |
| COc1ccc(S(=O)(=O)N(CC(C)C)C[C@@H](O)[C@H](CC23CC4CC(CC(C4)C2)C3)NC(=O)O[C@H]2CCOC2)cc1 [15a, (S)-Tetrahydrofuran-3-yl ((2S,3R)-1-((1s,3R)-adamantan-1-yl)-3-hydroxy-4-((N-isobutyl-4-methoxyphenyl)sulfonamido)butan-2-yl)carbamate] | did not exhibit appreciable antiviral activity | did not exhibit appreciable antiviral activity | did not exhibit appreciable antiviral activity | – | – |
| COc1ccc(S(=O)(=O)N(CC(C)C)C[C@@H](O)[C@H](CC23CC4CC(CC(C4)C2)C3)NC(=O)O[C@H]2CO[C@H]3OCC[C@H]32)cc1 [15d, (3R,3aS,6aR)-Hexahydrofuro[2,3-b]furan-3-yl ((2S,3R)-1-((1s,3R)-adamantan-1-yl)-3-hydroxy-4-((N-isobutyl-4-methoxyphenyl)sulfonamido)butan-2-yl)carbamate] | did not show any appreciable antiviral activity | did not show any appreciable antiviral activity | – | low nanomolar | – |
| CC(C)CN(C[C@@H](O)[C@H](Cc1ccccc1)NC(=O)O[C@H]1CO[C@H]2OCC[C@H]21)S(=O)(=O)c1ccc(N)cc1 [Darunavir, darunavir] | – | – | – | – | 3 nM |
